Assay results: US10813936B2, “Crystalline form of (S)-N-(5-((R)-2-(2,5-difluorophenyl)-pyrrolidin-1-YL)-pyrazolo[1,5-A]pyrimidin-3-YL)-3-hydroxypyrrolidine-1-carboxamide hydrogen sulfate” (Array BioPharma, Inc., priority 2014, dated 2020)
Structures can show the parent of a compound that is named as a salt.

Legend:
[1] = Accelerated stability, 40° C./75% RH, five weeks, LDPE bag; type: physicochemical; details: for API chemical purity over the course of the stability study: five weeks; for Assay / Chiral Potency / Total Impurities: HPLC
Experimental: Upon removal from the chamber, the samples were physically characterized by appearance, KF, TGA, DSC, XRD and PLM. The samples were also analyzed by HPLC for chromatographic purity, chiral integrity and potency. Where applicable, the data presented in the stability portion also includes the original T=0 data for comparison purposes. The data can be seen in Tables 25-29 and FIGS. 40-44.

[2] = Dynamic vapor sorption (DVS-1 system); type: physicochemical; details: for DVS (outcome): form after or during DVS, HCl at 50-60% RH
Experimental: For the DVS measurement a sample of crystalline form (I—HS) was cycled through changing humidity conditions to determine its hygroscopicity. The sample was analyzed using a Surface Measurement System DVS-1 Dynamic Vapor Sorption System. […] Data was collected in 1 minute intervals. Nitrogen was used as the carrier gas. […] After completion of the sorption cycle, the sample was dried using the same procedure, but all the way down to 0% RH and finally taken back to the starting point of 20% RH. The weight change during the sorption/desorption cycles were plotted, allowing for the hygroscopic nature of the sample to be determined.

[3] = Stability on aluminum slide at 40° Celsius/75% RH; type: physicochemical; details: time: I-HS 10 days, HCl 1 hour, HBr 2 weeks, mesylate overnight
[4] = test system: MPRIP-TRKA oncoprotein and ERK1/2; assay: Immunoblot of phosphorylation in CUTO-3F cells; type: cell-based, human; details: low doses, 2 hours
From the text: (§1) Briefly, cells were lysed in RIPA buffer with Halt Protease and Phosphatase Inhibitor Cocktail (Thermo Scientific) and diluted in loading buffer (LI-COR Biosciences). The membranes were scanned and analyzed using the Odyssey Imaging System and software (LI-COR). The following antibodies were used from Cell Signaling: pTRK Y490 (rabbit polyclonal, #9141), pERK1/2 XP T202/Y204 (#9101), total ERK1/2, pAKT 5473 (rabbit mAb, #4060), and total AKT mouse clone D3A7 (#2920). TRK (C-14) rabbit polyclonal antibody was purchased from Santa Cruz Biotechnology. GAPDH (MAB374) and pTYR (4G10) are from Millipore.

[5] = test system: TPM3-TRKA, pAKT, and pERK1/2; assay: Immunoblot of phosphorylation in KM12 cells; type: cell-based, human; details: low doses, 2 hours
From the text: as §1

[6] = test system: TEL-TRKC oncoprotein, pAKT, and pERK1/2; assay: Immunoblot of phosphorylation in MO-91 cells; type: cell-based, human; details: low doses, 2 hours
From the text: FIG. 13 is an immunoblot showing that the crystalline form (I—HS)inhibits TEL-TRKC kinase and ERK1/2 and AKT activity in MO-91 cells.
as §1

TRKA-SHC1 complexes = assay: TRK-SHC1 proximity ligation assay in CUTO-3 cells; type: cell-based, human; details: 100 nM, 2 hours, versus DMSO
Experimental: PLAs are unique because they can detect functional signaling complexes between a kinase and one of its adaptors in situ. In this assay, TRKA complexed with its preferred adaptor, SHC1, which binds to Y496 in the TRKA kinase domain, was measured (FIG. 17).
Cells were seeded onto glass coverslips (in a 48 well plate) or chamber slides at 25-75 k cells/well. Cells were treated with the indicated doses and times then fixed for 15 minutes by shaking at room temperature in 4% paraformaldehyde. The cells were rinsed twice in PBS, and then the Duolink® in situ PLA® kit from SigmaAldrich in mouse/rabbit (Red) was used according to the manufacturer's protocol (catalog # DUO92101). The antibody concentrations were optimized using immunofluorescence prior to PLA experiments. […] Additionally, samples were treated with 300 mM glycine for 15 minutes prior to the blocking step, otherwise the assay was performed according to the manufacturer's protocol. The cells were mounted using Prolong® gold anti-fade reagent (with DAPI) and cured overnight prior to imaging. The images were either taken on a Nikon standard inverted fluorescent microscope at 40×, or on the 31 Marianas spinning disc confocal in the University of Colorado Anschutz Medical Campus Advance Light Microscopy Core at 40× or 100×. […]

[7] = test system: xenograph (human) tumor derived from CUTO-3F cell line; assay: Xenograft tumor growth, CUTO-3F; type: in vivo, mice; details: CUTO-3F xenograft, oral daily 60 mg/kg or 200 mg/kg
From the text: (§2) The three different cancer cell lines, the CUTO-3F cell line, the KM12 cell line, and the MO-91 cell line, each express a different Trk gene fusion. […] Following implantation of one of these three different xenograph (human) tumors in mice, the change in the volume of each tumor was monitored.

[8] = test system: xenograph (human) tumor derived from KM12 cell line; assay: Xenograft tumor growth, KM12; type: in vivo, mice; details: oral daily 60 mg/kg or 200 mg/kg
From the text: as §2

[9] = test system: xenograph (human) tumor derived from MO-91 cell line; assay: Xenograft tumor growth, MO-91; type: in vivo, mice; details: MO-91 xenograft, oral daily 60 mg/kg or 200 mg/kg
From the text: as §2

[10] = test system: undifferentiated sarcoma with LMNA-NTRK1 fusion; assay: Phase 1 trial case: patient with undifferentiated sarcoma; type: in vivo, human; details: one patient
From the text: The patient started cycle 1 day 1 three days later. The patient was seen weekly for pharmacokinetic and safety analysis.

[11] = test system: solid tumors with NTRK-fusions; assay: Phase 1 study: response (RECIST 1.1) in NTRK-fusion patients; type: in vivo, human; details: 100 or 150 mg BID
Experimental: Three of the 23 patients harbored NTRK-fusions and were treated at either 100 or 150 mg BID.

[12] = Dynamic vapor sorption (IGAsorp analyzer, 25° C.); type: physicochemical
Experimental: • 1. The hygroscopicity was studied at 25° C. using an IGAsorp analyzer. • 2. About 15 mg of sample was placed in a tared mesh sample holder at an initial ambient room humidity setting of ˜35%. • 3. A total wet/dry nitrogen flow rate of 250 cc/min is used throughout the study. • 4. […] The maximum time allowed at any one humidity set point was 120 min. The sample was maintained under dry N2 after the cycle was completed. Percent weight gain was calculated based on the dry weight basis. Part One: Physical Characterization of Crystalline Form (I—HS)

[13] = Phase 1 dose escalation study: safety and pharmacokinetics
Experimental: Response is measured by RECIST Criteria, version 1.1. Serum is collected for pharmacokinetic analysis on Cycle 1 Day 1 and Day 8. Safety information is collected on all patients and the definition of dose-limiting toxicity applies to adverse events regardless of relationship to investigational product.

O=C(Nc1cnn2ccc(N3CCC[C@@H]3c3cc(F)ccc3F)nc12)N1CC[C@H](O)C1.O=S(=O)(O)O [AM(HS)1, (S)—N-(5-((R)-2-(2,5-difluorophenyl)-pyrrolidin-1-yl)-pyrazolo[1,5-a]pyrimidin-3-yl)-3-hydroxypyrrolidine-1-carboxamide hydrogen sulfate]
Peak Area Percent, RRT 0.793 ([1]; 40 C/75% RH, 5 wks.): 0.00 Peak Area Percent
Peak Area Percent, RRT 0.863 ([1]; 40 C/75% RH, 5 wks.): 1.04 Peak Area Percent
Peak Area Percent, RRT 0.981 ([1]; 40 C/75% RH, 5 wks.): 0.12 Peak Area Percent
Peak Area Percent, RRT 1.000 ([1]; 40 C/75% RH, 5 wks.): 98.83 Peak Area Percent
Peak Area Percent, RRT 1.535 ([1]; 40 C/75% RH, 5 wks.): 0.00 Peak Area Percent
KF ([1]; 40° C./75% RH, 5 wks.): 0.56 w/w %
API chemical purity over the course of the stability study ([1]; 40° C./75% RH): did not change significantly
Assay ([1]; 40° C./75% RH, 5 wks.): 80.3%
Chiral Potency ([1]; 40° C./75% RH, 5 wks.): 99.6%
Total Impurities ([1]; 40° C./75% RH, 5 wks.): 1.16%
Assay ([1]; time point 0 wks.): 79.5%
Chiral Potency ([1]; time point 0 wks.): 99.6%
Total Impurities ([1]; time point 0 wks.): 1.10%
Appearance ([1]; time point 0 wks.): Yellow Powder free
KF ([1]; time point 0 wks.): 2.00 w/w %
Peak Area Percent, RRT 0.793 ([1]; time point 0 wks.): 0.00 Peak Area Percent
Peak Area Percent, RRT 0.863 ([1]; time point 0 wks.): 0.98 Peak Area Percent
Peak Area Percent, RRT 0.981 ([1]; time point 0 wks.): 0.12 Peak Area Percent
Peak Area Percent, RRT 1.000 ([1]; time point 0 wks.): 98.89 Peak Area Percent
Peak Area Percent, RRT 1.535 ([1]; time point 0 wks.): 0.00 Peak Area Percent

O=C(Nc1cnn2ccc(N3CCC[C@@H]3c3cc(F)ccc3F)nc12)N1CC[C@H](O)C1.O=S(=O)(O)O [AM(HS), (S)—N-(5-((R)-2-(2,5-difluorophenyl)-pyrrolidin-1-yl)-pyrazolo[1,5-a]pyrimidin-3-yl)-3-hydroxypyrrolidine-1-carboxamide hydrogen sulfate]
behaviour when exposed to humidity [1]: deliquesced

Br.O=C(Nc1cnn2ccc(N3CCC[C@@H]3c3cc(F)ccc3F)nc12)N1CC[C@H](O)C1 [HBr, (S)—N-(5-((R)-2-(2,5-difluorophenyl)pyrrolidin-1-yl)pyrazolo[1,5-a]pyrimidin-3-yl)-3-hydroxypyrrolidine-1-carboxamide hydrobromide]
DVS (outcome) [2]: (deliquesced)
Stability at 40° Celsius/75% RH (aluminum slide) [3]: amorphous

Cl.O=C(Nc1cnn2ccc(N3CCC[C@@H]3c3cc(F)ccc3F)nc12)N1CC[C@H](O)C1 [HCl, (S)—N-(5-((R)-2-(2,5-difluorophenyl)pyrrolidin-1-yl)pyrazolo[1,5-a]pyrimidin-3-yl)-3-hydroxypyrrolidine-1-carboxamide hydrochloride]
DVS (outcome) [2]: form change
Stability at 40° Celsius/75% RH (aluminum slide) [3]: form change

CS(=O)(=O)O.O=C(Nc1cnn2ccc(N3CCC[C@@H]3c3cc(F)ccc3F)nc12)N1CC[C@H](O)C1 [Mesylate, (S)—N-(5-((R)-2-(2,5-difluorophenyl)pyrrolidin-1-yl)pyrazolo[1,5-a]pyrimidin-3-yl)-3-hydroxypyrrolidine-1-carboxamide methanesulfonate]
DVS (outcome) [2]: (crystalline)
Stability at 40° Celsius/75% RH (aluminum slide) [3]: Deliquesced

O=C(Nc1cnn2ccc(N3CCC[C@@H]3c3cc(F)ccc3F)nc12)N1CC[C@H](O)C1 [crystalline form (I—HS), (S)—N-(5-((R)-2-(2,5-difluorophenyl)-pyrrolidin-1-yl)-pyrazolo[1,5-a]pyrimidin-3-yl)-3-hydroxypyrrolidine-1-carboxamide hydrogen sulfate]
inhibition of phosphorylation of the MPRIP-TRKA oncoprotein and ERK1/2 [4]: inhibition
inhibition of phosphorylation of TPM3-TRKA, pAKT, and pERK1/2 [5]: inhibition
inhibition of phosphorylation of the TEL-TRKC oncoprotein, pAKT, and pERK1/2 [6]: inhibition
effect on TRKA-SHC1 complexes (PLA) (TRKA-SHC1 complexes): disruption of TRKA-SHC1 complexes
growth of xenograft tumor [7]: effectively halt the growth, or decrease the rate of growth
growth of xenograft tumor [8]: effectively halt the growth, or decrease the rate of growth
growth of xenograft tumor [9]: effectively halt the growth, or decrease the rate of growth
response by RECIST 1.1 ([10]; 100 mg twice daily, CT prior to cycle 2 and cycle 3): partial response
drug-related adverse events ([10]; 4-week period of cycle 1): No drug-related adverse events
adverse events attributed to the drug ([10]; after four months of dosing): did not have any adverse events
oxygen saturation ([10]; on room air, after treatment (baseline 90% with 5 L oxygen)): 97%
CA125 levels ([10]; over cycle 1): normalized
response of the three NTRK-fusion patients [11]: partial response
hygroscopicity (DVS) [2]: non-hygroscopic
increase in mass during the sorption cycle ([2]; between 0% and 90% RH): about 1.7%
DVS (outcome) [2]: RH No change
Stability at 40° Celsius/75% RH (aluminum slide) [3]: No form change
hygroscopicity (DVS) [12]: not hygroscopic
Peak Area Percent, RRT 0.793 ([1]; 40 C/75% RH, 5 wks.): 0.07 Peak Area Percent
Peak Area Percent, RRT 0.863 ([1]; 40 C/75% RH, 5 wks.): 0.00 Peak Area Percent
Peak Area Percent, RRT 0.981 ([1]; 40 C/75% RH, 5 wks.): 0.00 Peak Area Percent
Peak Area Percent, RRT 1.000 ([1]; 40 C/75% RH, 5 wks.): 99.93 Peak Area Percent
Peak Area Percent, RRT 1.535 ([1]; 40 C/75% RH, 5 wks.): 0.00 Peak Area Percent
Appearance ([1]; 40° C./75% RH, 5 wks.): Orange Powder free
KF ([1]; 40° C./75% RH, 5 wks.): 0.21 w/w %
API chemical purity over the course of the stability study ([1]; 40° C./75% RH): did not change significantly
Assay ([1]; 40° C./75% RH, 5 wks.): 79.6%
Chiral Potency ([1]; 40° C./75% RH, 5 wks.): 99.6%
Total Impurities ([1]; 40° C./75% RH, 5 wks.): 0.07%
Assay ([1]; time point 0 wks.): 79.4%
Chiral Potency ([1]; time point 0 wks.): 99.6%
Total Impurities ([1]; time point 0 wks.): 0.14%
Appearance ([1]; time point 0 wks.): Orange Powder free
KF ([1]; time point 0 wks.): 0.28 w/w %
Peak Area Percent, RRT 0.793 ([1]; time point 0 wks.): 0.07 Peak Area Percent
Peak Area Percent, RRT 0.863 ([1]; time point 0 wks.): 0.00 Peak Area Percent
Peak Area Percent, RRT 0.981 ([1]; time point 0 wks.): 0.00 Peak Area Percent
Peak Area Percent, RRT 1.000 ([1]; time point 0 wks.): 99.86 Peak Area Percent
Peak Area Percent, RRT 1.535 ([1]; time point 0 wks.): 0.07 Peak Area Percent
adverse event: Grade 1 and 2 anemia ([13]; 23 patients): 22%
adverse event: Grade 1 and 2 dizziness ([13]; 23 patients): 26%
adverse event: Grade 1 and 2 fatigue ([13]; 23 patients): 35%
patients with dose limiting toxicities ([13]; elevated AST grade 3 (150 mg BID), delirium grade 3 unrelated (100 mg BID)): Two
